Data on 13 compounds can be found in patent US20230391772A1, “METHODS AND COMPOSITIONS FOR TARGETED PROTEIN DEGRADATION” (Ranok Therapeutics (Hangzhou) Co. Ltd., priority 2020, published 2023).

Each structure is given as a SMILES string.

Test [1] concerns NCI-H358 human non-small cell lung cancer. Put plainly: NCI-H358 CCK-8 proliferation assay. It counts as cell-based. The conditions noted are these: NCI-H358 cells, 72 hr. The method in brief:
(§1)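 Three KRAS(G12C) lines are used, MIA PaCa-2 at two mutant copies and the NSCLC lines NCI-H358 and NCI-H23 at one. Each compound is titrated 3-fold from 20 μM to 1.02 nM, and proliferation is scored by CCK-8.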
A general note: Formazan colour is commonly taken as a measure of viable cells.

For a further test, the target named is T1, HSP90a protein (Homo sapiens, UniProt P07900).
T1 construct: purchased BPS Bioscience 50298
Put plainly: HSP90α-binding fluorescent polarization (FP) assay, BODIPY-labeled RNK04010 probe. Particulars: FP competition with RNK04010 (BODIPY-labeled), 5 nM, 300 min at 25° C. The gist of the method: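 Compounds (20 μM down to 5.2 nM, 2.5-fold steps) compete with a 5 nM fluorescent tracer for N-terminal HSP90a, measured by fluorescence polarization. With FITC-geldanamycin, plates sit 120 min at 25 °C. With BODIPY-RNK04010, they sit 300 min at 25 °C.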

Test [2] concerns MIA PaCa-2 human pancreatic carcinoma. Nature of the test: MIA PaCa-2 CCK-8 proliferation assay. In kind it is cell-based. Particulars: Homo sapiens, MIA PaCa-2, 72 h, MIA PaCa-2 cells. The method in brief: as §1

Consider `CCC(=O)N1CCN(c2nc(NCCC(=O)N3CCC(Cc4ccc(CN(C)Cc5ccc(-n6c(O)nnc6-c6cc(C(C)C)c(O)cc6O)cc5)cc4)CC3)nc3c2CCN(c2cc(O)cc4ccccc24)C3)CC1` [Compound 63, trifluoroacetic acid], for which the EC50 is 100 to 1000 nM in test [1] and more than 1000 nM in test [2]. On HSP90a protein, the IC50 fell in the range of 100 to 1000 nM.
In test [1], `C=CC(=O)N1CCN(c2nc(NCCC(=O)NCc3ccc(-n4c(O)nnc4-c4ccc(O)cc4O)cc3)nc3c2CCN(c2cccc4cccc(Cl)c24)C3)C[C@@H]1CC#N` [Compound 111, (S)-3-((4-(4-acryloyl-3-(cyanomethyl)piperazin-1-yl)-7-(8-chloronaphthalen-1-yl)-5,6,7,8-tetrahydropyrido[3,4-d]pyrimidin-2-yl)amino)-N-(4-(3-(2,4-dihydroxyphenyl)-5-hydroxy-4H-1,2,4-triazol-4-yl)benzyl)propanamide, trifluoroacetic acid] came in with an EC50 of more than 1000 nM. For the same compound, the IC50 on HSP90a protein is more than 1000 nM.
In test [1], `CCc1cc(-c2nnc(C(=O)NCC(F)(F)F)n2-c2ccc(CN(C)Cc3ccc(CC4CCN(C(=O)CCNc5nc6c(c(N7CCN(C(C)=O)CC7)n5)CCN(c5cc(O)cc7ccccc57)C6)CC4)cc3)cc2)c(O)cc1O` [Compound 113, 4-(4-(((4-((1-(3-((4-(4-acetylpiperazin-1-yl)-7-(3-hydroxynaphthalen-1-yl)-5,6,7,8-tetrahydropyrido[3,4-d]pyrimidin-2-yl)amino)propanoyl)piperidin-4-yl)methyl)benzyl)(methyl)amino)methyl)phenyl)-5-(5-ethyl-2,4-dihydroxyphenyl)-N-(2,2,2-trifluoroethyl)-4H-1,2,4-triazole-3-carboxamide, trifluoroacetic acid] gave an EC50 of 100 to 1000 nM. Besides, the IC50 on HSP90a protein fell in the range of 100 to 1000 nM.
`CC(=O)N1CCN(c2nc(NCCC(=O)N3CCC(Cc4ccc(CN(C)Cc5ccc(-n6c(C(=O)NCC(F)(F)F)nnc6-c6cc(C)c(O)cc6O)cc5)cc4)CC3)nc3c2CCN(c2cc(O)cc4ccccc24)C3)CC1` [Compound 114, 4-(4-(((4-((1-(3-((4-(4-acetylpiperazin-1-yl)-7-(3-hydroxynaphthalen-1-yl)-5,6,7,8-tetrahydropyrido[3,4-d]pyrimidin-2-yl)amino)propanoyl)piperidin-4-yl)methyl)benzyl)(methyl)amino)methyl)phenyl)-5-(2,4-dihydroxy-5-methylphenyl)-N-(2,2,2-trifluoroethyl)-4H-1,2,4-triazole-3-carboxamide, trifluoroacetic acid] registered an EC50 in test [1] of more than 1000 nM. On HSP90a protein, the IC50 is more than 1000 nM.
`CCC(=O)N1CCN(c2nc(NCCC(=O)N3CCC(CN4CCN(Cc5ccc(-n6c(C(=O)NC(CC)CC)nnc6-c6cc(CC)c(O)cc6O)cc5)CC4)CC3)nc3c2CCN(c2cc(O)cc4ccccc24)C3)CC1` [Compound 117, 5-(5-ethyl-2,4-dihydroxyphenyl)-4-(4-((4-((1-(3-((7-(3-hydroxynaphthalen-1-yl)-4-(4-propionylpiperazin-1-yl)-5,6,7,8-tetrahydropyrido[3,4-d]pyrimidin-2-yl)amino)propanoyl)piperidin-4-yl)methyl)piperazin-1-yl)methyl)phenyl)-N-(pentan-3-yl)-4H-1,2,4-triazole-3-carboxamide, trifluoroacetic acid] displayed an EC50 in test [1] of 100 to 1000 nM. The IC50 on HSP90a protein fell in the range of 100 to 1000 nM.
In turn, `CC(=O)N1CCN(c2nc(NCCC(=O)N3CCC(Cc4ccc(CN(C)Cc5ccc(-n6c(C(=O)NCC(F)(F)F)nnc6-c6cc(C)c(O)cc6O)cc5)cc4)CC3)nc3c2CCN(c2cccc4ccccc24)C3)C[C@H]1CC#N` [Compound 122, (R)-4-(4-(((4-((1-(3-((4-(4-acetyl-3-(cyanomethyl)piperazin-1-yl)-7-(naphthalen-1-yl)-5,6,7,8-tetrahydropyrido[3,4-d]pyrimidin-2-yl)amino)propanoyl)piperidin-4-yl)methyl)benzyl)(methyl)amino)methyl)phenyl)-5-(2,4-dihydroxy-5-methylphenyl)-N-(2,2,2-trifluoroethyl)-4H-1,2,4-triazole-3-carboxamide, trifluoroacetic acid] gave an EC50 in test [1] of more than 1000 nM. Also, the IC50 at HSP90a protein is more than 1000 nM.
`CC(=O)N1CCN(c2nc(NCCC(=O)N3CCN(Cc4ccc(CN(C)Cc5ccc(-n6c(C(=O)NCC(F)(F)F)nnc6-c6cc(C(C)C)c(O)cc6O)cc5)cc4)CC3)nc3c2CCN(c2cccc4ccccc24)C3)C[C@H]1CC#N` [Compound 124, (R)-4-(4-(((4-((4-(3-((4-(4-acetyl-3-(cyanomethyl)piperazin-1-yl)-7-(naphthalen-1-yl)-5,6,7,8-tetrahydropyrido[3,4-d]pyrimidin-2-yl)amino)propanoyl)piperazin-1-yl)methyl)benzyl)(methyl)amino)methyl)phenyl)-5-(2,4-dihydroxy-5-isopropylphenyl)-N-(2,2,2-trifluoroethyl)-4H-1,2,4-triazole-3-carboxamide, trifluoroacetic acid] showed an EC50 in test [1] of 100 to 1000 nM. At HSP90a protein, this compound gave an IC50 of 100 to 1000 nM.
In turn, `C=CC(=O)N1CCN(c2nc(NCCC(=O)NCc3ccc(CN4CCC(Cc5ccc(-n6c(C(=O)NCC(F)(F)F)nnc6-c6cc(CC)c(O)cc6O)cc5)CC4)cc3)nc3c2CCN(c2cc(O)cc4ccccc24)C3)CC1` [Compound 125, 4-(4-((1-(4-((3-((4-(4-acryloylpiperazin-1-yl)-7-(3-hydroxynaphthalen-1-yl)-5,6,7,8-tetrahydropyrido[3,4-d]pyrimidin-2-yl)amino)propanamido)methyl)benzyl)piperidin-4-yl)methyl)phenyl)-5-(5-ethyl-2,4-dihydroxyphenyl)-N-(2,2,2-trifluoroethyl)-4H-1,2,4-triazole-3-carboxamide, trifluoroacetic acid] gave an EC50 in test [1] of 100 to 1000 nM. For the same compound, the IC50 on HSP90a protein lay in the range of 100 to 1000 nM.
Compound `C=C(F)C(=O)N1CCN(c2nc(N3CCC(CN4CCN(Cc5ccc(-n6c(O)nnc6-c6cc(C(C)C)c(O)cc6O)cc5)CC4)CC3)nc3c2CCN(c2cccc4cccc(Cl)c24)C3)C[C@@H]1CC#N` [Compound 129, (S)-2-(4-(7-(8-chloronaphthalen-1-yl)-2-(4-((4-(4-(3-(2,4-dihydroxy-5-isopropylphenyl)-5-hydroxy-4H-1,2,4-triazol-4-yl)benzyl)piperazin-1-yl)methyl)piperidin-1-yl)-5,6,7,8-tetrahydropyrido[3,4-d]pyrimidin-4-yl)-1-(2-fluoroacryloyl)piperazin-2-yl)acetonitrile] showed an EC50 in test [1] of 100 to 1000 nM. At HSP90a protein, this compound had an IC50 of less than 100 nM.
The matching figures for `CCC(=O)N1CCN(c2nc(=O)n(-c3ccc(C(=O)NCCOCCOc4ccc(-n5c(O)nnc5-c5cc(C(C)C)c(O)cc5O)cc4)nc3)c3nc(-c4c(O)cccc4F)c(F)cc23)[C@@H](C)C1` [Compound 130, N-(2-(2-(4-(3-(2,4-dihydroxy-5-isopropylphenyl)-5-hydroxy-4H-1,2,4-triazol-4-yl)phenoxy)ethoxy)ethyl)-5-(6-fluoro-7-(2-fluoro-6-hydroxyphenyl)-4-((S)-2-methyl-4-propionylpiperazin-1-yl)-2-oxopyrido[2,3-d]pyrimidin-1(2H)-yl)picolinamide]: more than 1000 nM and less than 100 nM.
The matching figures for `C=C(F)C(=O)N1CCN(c2nc(NCCC(=O)NCc3ccc(CN4CCC(Cc5ccc(-n6c(C(=O)NCC(F)(F)F)nnc6-c6cc(C(C)C)c(O)cc6O)cc5)CC4)cc3)nc3c2CCN(c2cc(O)cc4ccccc24)C3)CC1` [Compound 154, 5-(2,4-dihydroxy-5-isopropylphenyl)-4-(4-((1-(4-((3-((4-(4-(2-fluoroacryloyl)piperazin-1-yl)-7-(3-hydroxynaphthalen-1-yl)-5,6,7,8-tetrahydropyrido[3,4-d]pyrimidin-2-yl)amino)propanamido)methyl)benzyl)piperidin-4-yl)methyl)phenyl)-N-(2,2,2-trifluoroethyl)-4H-1,2,4-triazole-3-carboxamide]: 100 to 1000 nM and 100 to 1000 nM.
As to `C=C(F)C(=O)N1CCN(c2nc(OC[C@@H]3CCN(C(=O)c4ccc(Nc5cc(-n6nc(C(F)(F)F)c7c6CC(C)(C)CC7=O)ccc5C(N)=O)cc4)C3)nc3c2CCN(c2cccc4cccc(Cl)c24)C3)C[C@@H]1CC#N` [Compound 163, 2-((4-((R)-3-(((7-(8-chloronaphthalen-1-yl)-4-((S)-3-(cyanomethyl)-4-(2-fluoroacryloyl)piperazin-1-yl)-5,6,7,8-tetrahydropyrido[3,4-d]pyrimidin-2-yl)oxy)methyl)pyrrolidine-1-carbonyl)phenyl)amino)-4-(6,6-dimethyl-4-oxo-3-(trifluoromethyl)-4,5,6,7-tetrahydro-1H-indazol-1-yl)benzamide], in test [1], the EC50 was more than 1000 nM. At HSP90a protein, the IC50 is more than 1000 nM.
Turning to `C=C(F)C(=O)N1CCN(c2nc(OC[C@@H]3CCCN3C(=O)COc3ccc(Nc4cc(-n5nc(C(F)(F)F)c6c5CC(C)(C)CC6=O)ccc4C(N)=O)cc3)nc3c2CCN(c2cccc4cccc(Cl)c24)C3)C[C@@H]1CC#N` [Compound 164, 2-((4-(2-((S)-2-(((7-(8-chloronaphthalen-1-yl)-4-((S)-3-(cyanomethyl)-4-(2-fluoroacryloyl)piperazin-1-yl)-5,6,7,8-tetrahydropyrido[3,4-d]pyrimidin-2-yl)oxy)methyl)pyrrolidin-1-yl)-2-oxoethoxy)phenyl)amino)-4-(6,6-dimethyl-4-oxo-3-(trifluoromethyl)-4,5,6,7-tetrahydro-1H-indazol-1-yl)benzamide], the EC50 in test [1] is more than 1000 nM. This compound also registered an IC50 at HSP90a protein of more than 1000 nM.

A word on the EC50: it is the concentration giving half of the maximal effect. In general, IC50 refers to the concentration that gives 50% inhibition. The low end stands for greater potency in that assay, the high end for weaker potency in that assay.
